# Test results reported in US20250129048A1, “MELANOCORTIN 4 RECEPTOR ANTAGONISTS AND USES THEREOF” (Pfizer Inc., priority 2021, published 2025).
# How the values were obtained:
# [1] = molecular target: human Melanocortin-4 receptor (MC4R) (Homo sapiens (Human), UniProt P32245); assay: Functional in vitro MC4R antagonist potency assay (intracellular cAMP, HTRF, CHO cells); format: cell-based; conditions: cAMP after EC80 agonist stimulation (200 nM αMSH); Kb from IC50 by Leff-Dougall equation; read-out: Kb (nM) Antagonist geometric mean
# Protocol: The functional in vitro antagonist potency for test compounds was determined by monitoring intracellular cyclic adenosine monophosphate (cAMP) levels in Chinese hamster ovary (CHO—) cells stably expressing the human Melanocortin-4 receptor (MC4R). Following agonist activation, human MC4R associates with the G-protein complex causing the Ga subunit to exchange bound GDP for GTP, followed by dissociation of the Gα-GTP complex. The activated Ga subunit can couple to downstream effectors to regulate the levels of second messengers or cAMP within the cell. Thereby, determination of intracellular cAMP levels allows for pharmacological characterization. Intracellular cAMP levels are quantitated using a homogenous assay utilizing the Homogeneous Time-Resolved Fluorescence (HTRF) technology from CisBio. The method is a competitive immunoassay between native cAMP produced by cells and the cAMP labelled with the acceptor dye, d2. The two entities then compete for binding to a monoclonal anti-cAMP antibody labeled with cryptate. The specific signal is inversely proportional to the concentration of cAMP in the cells.
# Test compounds were solubilized to 30 mM in 100% dimethyl sulfoxide (DMSO) and stored. An 11-point dilution series using 1 in 3 162-fold serial dilutions was created in 100% DMSO with a top concentration of 800 μM. The serially diluted compound was spotted into a 384-well plate (Greiner, Cat No. 781280) at 40 nL/well with duplicate points at each concentration, and then diluted 1 in 1000 with 40 μL assay buffer containing HBSS, 20 mM HEPES (Invitrogen), 0.1% BSA, and 250 μM IBMX (Sigma Aldrich) to create an intermediate plate at 2× final assay concentration (FAC). The final compound concentration range in the assay was 400 nM to […], with a final DMSO concentration of 0.1%.
# In-house generated CHO cells stably expressing the Gs-coupled human MC4R receptor were plated in 384-well assay plates (Corning, Cat No. 3570) in 50 μL/well of Ham's F-12 containing 10% heat inactivated FBS, 1× penicillin/streptomycin, 1 mM Glutamax (Invitrogen) at a density of 2,500 cells per well and incubated at 37° C. (95% O2: 5% CO2) overnight, with micro-clime lids (Labcyte, Cat No. LLS-0310). On day of assay, media was removed from the assay plate through gentle flicking and blotting plate on a paper towel and replaced with 5 μL of 2× antagonist compound in assay buffer (HBSS, 20 mM HEPES, 0.1% BSA, 250 μM IBMX) and 0.1% DMSO. Cells were incubated with compound for 30 minutes at 37° C. (95% O2: 5% CO2) before addition of 5 μL EC80 agonist stimulation (200 nM α-melanocyte stimulating hormone, αMSH, Bachem) and another 30-minute incubation at 37° C. (95% O2: 5% CO2). Intracellular cAMP levels were quantified as per Cisbio's protocol (5 μL of D2 and then 5 μL Cryptate, incubated for 1-2 hours at room temperature). Samples were measured on an Envision plate reader (PerkinElmer Life and Analytical Sciences; excitation, 320 nm; emission, 665 nm/620 nm).
# Data were analyzed using the ratio of fluorescence intensity at 620 and 665 nm for each well, extrapolated from the cAMP standard curve to express data as nM cAMP for each well. Data expressed as nM cAMP were then normalized to control wells using Activity Base (IDBS). Zero percent effect (ZPE) was defined as nM of cAMP generated from EC80 agonist stimulation (200 nM αMSH). In the absence of an antagonist control compound, one hundred percent effect (HPE) was defined as nM of cAMP generated from assay buffer/vehicle only.
# hMC4R = hMC4R (Homo sapiens (Human), UniProt P32245); assay: In vitro binding affinity assay using hMC4R (radioligand competition binding, CHO cell membranes); conditions: competition with [125I]-(Nle4, D-Phe7)-α-MSH 0.5 nM; Ki from IC50 by Cheng-Prusoff; read-out: Ki (nM) geometric mean
# Protocol: The binding affinity of test compounds at the α-melanocyte-stimulating hormone receptor (hMC4R) was assessed using a radioligand competition binding assay. Recombinant Chinese hamster ovaries (CHO) cells stably expressing hMC4R (PerkinElmer #ES-191-C) were used for competitive binding. hMC4R membranes were grown in Dulbecco's Modified Essential Medium and Ham's F-12 Medium (DMEM/F12), 10% heat inactivated fetal bovine serum (FBS), 0.4 mg/mL Geneticin and 2 mM L-glutamine. Cell membranes were bulked and frozen until the assay was performed.
# Compounds were solubilized in 100% dimethyl sulfoxide (DMSO) to a concentration of 30 mM. A 10-point intermediate dilution series using half log dilutions was created in 100% DMSO with a top concentration of 0.03 mM. The serially diluted compounds were spotted as 1 μL/well, in 96-well Costar 3363 plates. The final compound range in the assay was 300 nM to 0.01 nM with a final DMSO concentration of 1%. Control wells, containing 1 μL of 2 mM ([…]) alpha-melanocyte stimulating hormone (α-MSH-Tocris #2584) was added to the non-specific binding wells and 1 μL 100% DMSO for the total binding control wells. This was followed by the addition of 80 μL of assay buffer [25 mM HEPES, 5 mM MgCl2, 2.5 mM CaCl2, 150 mM NaCl, Complete EDTA-free Protease Inhibitor Tablet (Thermo Scientific #11873580001) and 0.25% BSA]. […] The exact concentration of radioligand used for each experiment was determined by liquid scintillation counting and adjusted if necessary.
# Frozen hMC4R cell membranes were thawed and Dounce homogenized. Homogenates were resuspended in assay buffer to a concentration of 2 μg per well. […] The plates were incubated for 2 hours at room temperature. Assay samples were then rapidly filtered through Unifilter-96 GF/B PEI coated filter plates using a filter plate harvester (PerkinElmer) and rinsed with ice-cold wash buffer [25 mM (4-(2-hydroxyethyl)-1-piperazineethanesulfonic acid (HEPES), 1 mM MgCl2, 2.5 mM CaCl2, and 500 mM NaCl]. Filter plates were dried overnight at room temperature. Plates were then bottom-sealed prior to the addition of 50 μL/well Ultima Gold XR scintillation fluid (PerkinElmer 6013111). Plates were then top-sealed, incubated for 60 minutes at room temperature and then the amount of radioactivity present was determined by liquid scintillation counting on a Microbeta Trilux (PerkinElmer #2450-0060).
# The raw data (expressed as counts per minute) were analyzed using ActivityBase (IDBS Data Management Software). […] Equilibrium dissociation constant for inhibitor of ligand and receptor interaction (Ki) values were then calculated from the IC50 values using the Cheng-Prusoff equation: Ki=IC50/(1+([L]/Kd)), where [L] is the concentration of the radioligand used in the experiment and Kd is the affinity of the radioligand (determined in separate saturation experiments).
# Chain of human Melanocortin-4 receptor (MC4R) (P32245 whole entry): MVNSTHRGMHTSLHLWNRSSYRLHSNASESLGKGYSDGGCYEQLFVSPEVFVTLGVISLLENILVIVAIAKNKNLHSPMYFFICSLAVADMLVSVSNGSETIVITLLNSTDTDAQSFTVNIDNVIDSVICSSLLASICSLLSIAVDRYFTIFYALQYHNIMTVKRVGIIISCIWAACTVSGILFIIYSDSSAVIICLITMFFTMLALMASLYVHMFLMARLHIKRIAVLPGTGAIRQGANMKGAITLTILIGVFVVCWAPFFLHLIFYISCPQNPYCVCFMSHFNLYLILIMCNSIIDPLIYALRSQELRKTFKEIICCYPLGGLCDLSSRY
# Chain of hMC4R (P32245 whole entry): as above
Structure (SMILES),Kb [1],Ki (hMC4R)
"Cc1nc(N[C@H]2CCN(C(=O)Cc3ccc(F)cc3)C2(C)C)ccc1-c1cn(C)cn1 [Example 3B, 1-[(3S)-2,2-dimethyl-3-{[6-methyl-5-(1-methyl-1H-imidazol-4-yl)pyridin-2-yl]amino}pyrrolidin-1-yl]-2-(4-fluorophenyl)ethan-1-one]",33 nM,4.2 nM
"COc1cc([C@@H](C)C(=O)N2CC[C@H](Nc3ccc(-c4nc(C(C)(F)F)n(C)n4)c(C)n3)C2)c(F)cn1 [Example 4, (2R)-1-[(3S)-3-({5-[5-(1,1-difluoroethyl)-1-methyl-1H-1,2,4-triazol-3-yl]-6-methylpyridin-2-yl}amino)pyrrolidin-1-yl]-2-(5-fluoro-2-methoxypyridin-4-yl)propan-1-one]",9.6 nM,1 nM
"COc1cc([C@@H](C)C(=O)N2CC[C@H](Nc3ccc(-c4nnn(C)n4)c(C)n3)C2)c(F)cn1 [Example 5, (2R)-2-(5-fluoro-2-methoxypyridin-4-yl)-1-[(3S)-3-{[6-methyl-5-(2-methyl-2H-tetrazol-5-yl)pyridin-2-yl]amino}pyrrolidin-1-yl]propan-1-one]",17 nM,2.6 nM
"COc1cc([C@@H](C)C(=O)N2CC[C@H](Nc3ccc(-c4ncccn4)c(C)n3)C2)c(Cl)cn1 [Example 6, (2R)-2-(5-chloro-2-methoxypyridin-4-yl)-1-[(3S)-3-{[6-methyl-5-(pyrimidin-2-yl)pyridin-2-yl]amino}pyrrolidin-1-yl]propan-1-one]",2.2 nM,1.1 nM
"Cc1nc(N[C@H]2CCN(C(=O)Cc3cc(F)c(F)c(F)c3)C2)ccc1-c1cn(C)c(C(F)F)n1 [Example 28, 1-[(3S)-3-({5-[2-(difluoromethyl)-1-methyl-1H-imidazol-4-yl]-6-methylpyridin-2-yl}amino)pyrrolidin-1-yl]-2-(3,4,5-trifluorophenyl)ethan-1-one]",1.3 nM,0.25 nM
"[2H]C([2H])([2H])n1nc(-c2ccc(N[C@H]3CCN(C(=O)[C@H](C)c4cc(OC)ncc4F)C3)nc2C)nc1C(F)(F)F [Example 42, (2R)-2-(5-fluoro-2-methoxypyridin-4-yl)-1-[(3S)-3-({6-methyl-5-[1-(^2H3)methyl-5-(trifluoromethyl)-1H-1,2,4-triazol-3-yl]pyridin-2-yl}amino)pyrrolidin-1-yl]propan-1-one]",5.4 nM,1.3 nM

# Other lines, results leading:
Kb [1],Ki (hMC4R),Structure (SMILES)
19 nM,1.2 nM,"COc1cc([C@@H](C)C(=O)N2CC[C@H](Nc3ccc(-c4nc(C(F)F)n(C5CC5)n4)c(C)n3)C2)c(F)cn1 [Example 8, (2R)-1-[(3S)-3-({5-[1-cyclopropyl-5-(difluoromethyl)-1H-1,2,4-triazol-3-yl]-6-methylpyridin-2-yl}amino)pyrrolidin-1-yl]-2-(5-fluoro-2-methoxypyridin-4-yl)propan-1-one]"
2.1 nM,0.51 nM,"COc1cc([C@@H](C)C(=O)N2CC[C@H](Nc3ccc(-c4nc5ccccn5n4)c(C)n3)C2)c(Cl)cn1 [Example 18, (2R)-2-(5-chloro-2-methoxypyridin-4-yl)-1-[(3S)-3-{[6-methyl-5-([1,2,4]triazolo[1,5-a]pyridin-2-yl)pyridin-2-yl]amino}pyrrolidin-1-yl]propan-1-one]"
3.3 nM,0.28 nM,"COc1cc(OC)cc([C@@H](C)C(=O)N2CC[C@H](Nc3ccc(-c4nc(C(F)(F)F)n(C)n4)c(C)n3)C2)c1 [Example 39, (2R)-2-(3,5-dimethoxyphenyl)-1-[(3S)-3-({6-methyl-5-[1-methyl-5-(trifluoromethyl)-1H-1,2,4-triazol-3-yl]pyridin-2-yl}amino)pyrrolidin-1-yl]propan-1-one]"
9.5 nM,0.91 nM,"COc1cc([C@@H](C)C(=O)N2CC[C@H](Nc3ccc(-c4nc5ccccn5n4)c(C)n3)C2)c(F)cn1 [Example 43, (2R)-2-(5-fluoro-2-methoxypyridin-4-yl)-1-[(3S)-3-{[6-methyl-5-([1,2,4]triazolo[1,5-a]pyridin-2-yl)pyridin-2-yl]amino}pyrrolidin-1-yl]propan-1-one]"
